From patent US20180153826A1, “MATERIALS AND METHODS FOR THE TREATMENT OF CYSTIC FIBROSIS” (UNIVERSITY OF FLORIDA RESEARCH FOUNDATION, INC., priority 2015, published 2018)

Tests used:
[1] = tested on: HCO3^− secretion by colonic mucosa; assay: Secretagogue (forskolin)-induced HCO3^− secretion, lumen Cl^−-containing Ringer; parameters: species or system rat; conditions: 10 μM serosa, added after forskolin 500 nM
Description: Stripped mucosal sheets were mounted into Ussing chambers (window area=0.3-0.5 cm^2, Physiologic Instruments, San Diego, Calif.). The mucosal side of tissue was bathed with an unbuffered HCO3^−-free Cl^− Ringer solution (see Table 2 for detailed composition) circulated by a gas lift with 100% O2 while the serosal side was bathed with buffered Cl^− Ringer solution (pH 7.4) that contained 25 mM HCO3^− and gassed with 5% CO2/95% O2. Each side contained 3-5 ml of solution and the temperature of the solution was adjusted to and maintained at 37° C. by heated water-jacketed reservoirs. […]
Two types of approaches were used in the measurement of colonic HCO3^− secretion, namely, measurement of lumen pH or pH stat titration of net alkalinization by colonic mucosa. […] The amount of the acid delivered per unit time per surface area was used to quantitate HCO3^− secretion by the mucosa. Measurements were recorded continuously and mean values for consecutive 5 or 10 min periods were averaged. The rate of HCO3^− secretion (JHCO3) is expressed as μEq/hr/cm^2. The short-circuit current (Isc) was measured in microamperes (μA) and converted into μEq/hr/cm^2. Tissue resistance (R, Ω cm^2) was calculated from Ohm's law. […]

ENaC = ENaC activity as amiloride-sensitive bumetanide-insensitive Isc, weanling distal colon; parameters: species or system rat; conditions: 10 μM; 2-3 week old rat distal colon
Description: FIG. 17. The inhibitory effect of […] on ENaC was examined electrophysiologically by measuring amiloride-sensitive short-circuit current responses in the presence or absence of […]. Weanling infant distal colonic mucosa, which expresses highest activity of ENaC, is employed and mounted in Ussing chamber. FIGS. 19A-19C. […] Here, the activity of ENaC is measured as amiloride-sensitive bumetanide-insensitive Isc. […] FIGS. 20A-20C. […] The activity of ENaC was measured as amiloride-sensitive bumetanide-insensitive Isc. […] Secretory Cl current is mediated by apical CFTR. This Cl secretory Isc is sensitive to bumetanide, applied to the basolateral side of the epithelium. There, bumetanide inhibits Cl entry from blood into the cell; thus, in the presence of bumetanide, the secretory Cl current is eliminated. Absorptive Na current is mediated by apically located epithelial Na channel (ENaC). This latter current is particularly high in this weanling age and is sensitive to amiloride, when it is applied luminally.

[2] = tested on: colon mucosa of CaSR null mice; assay: HCO3^− secretion in colon mucosa of CaSR null (CaSR^−/−) mice; parameters: species or system mouse
Description: FIGS. 13A-13F. […] Colonic mucosa from wild type (CaSR^+/+) (A-C) and knockout (CaSR^-/-) mice (D-F) were isolated and treated, and activities of the three HCO3^- transporters assayed as in rats. Data are means±SEM of 4-6 experiments. *p<0.05 vs. control (1st bar). Experiments were performed using non-fasting male Sprague-Dawley rats and C57BL/6 mice. Rats weighting 100-400 g were obtained from Charles River Laboratories. Mice lacking CaSR expression in intestinal epithelial cells (CaSR^-/-) and their CaSR^+/+ littermates were bred and maintained. CaSR^-/- mice were generated as previously described. Briefly, CaSR flox/flox mice were bred with transgenic mice expressing Cre Recombinase under the control of the villin 1 promoter and genotyped prior to all experiments after an approximate 10-12 generations. Mice were used at 5-10 weeks of age. Animals were fed and maintained on regular chow (Harlan) with free access to water before sacrifice. Animals were sacrificed with standard CO2 inhalation followed by cervical dislocation. The colons were isolated, cut open along the mesenteric border into a flat sheet, and flushed with ice-cold Ringer solutions. Mucosa from the distal colon were carefully hand-stripped off of serosal, muscular and submucosal layers as described and a pair of adjacent mucosal segments were incised and mounted into Ussing chambers. […]

[3] = tested on: HCO3^− secretion by colonic mucosa; assay: Basal HCO3^− secretion (pH stat JHCO3 and Isc, Ussing chamber); parameters: species or system rat
Description: Experiments were performed using non-fasting male Sprague-Dawley rats and C57BL/6 mice. Rats weighting 100-400 g were obtained from Charles River Laboratories. Mice lacking CaSR expression in intestinal epithelial cells (CaSR^−/−) and their CaSR^+/+ littermates were bred and maintained. CaSR^−/− mice were generated as previously described. Briefly, CaSR flox/flox mice were bred with transgenic mice expressing Cre Recombinase under the control of the villin 1 promoter and genotyped prior to all experiments after an approximate 10-12 generations. Mice were used at 5-10 weeks of age. Animals were fed and maintained on regular chow (Harlan) with free access to water before sacrifice. Animals were sacrificed with standard CO2 inhalation followed by cervical dislocation. The colons were isolated, cut open along the mesenteric border into a flat sheet, and flushed with ice-cold Ringer solutions. […]
Two types of approaches were used in the measurement of colonic HCO3^− secretion, namely, measurement of lumen pH or pH stat titration of net alkalinization by colonic mucosa. […] The amount of the acid delivered per unit time per surface area was used to quantitate HCO3^− secretion by the mucosa. Measurements were recorded continuously and mean values for consecutive 5 or 10 min periods were averaged. The rate of HCO3^− secretion (JHCO3) is expressed as μEq/hr/cm^2. The short-circuit current (Isc) was measured in microamperes (μA) and converted into μEq/hr/cm^2. Tissue resistance (R, Ω cm^2) was calculated from Ohm's law.
Two adjacent sheets of mucosa from each colon were mounted into two Ussing chambers and bathed luminally with HCO3^−-free Cl^− Ringer solution and serosally with HCO3^−-containing Cl^− Ringer solution. After 15 to 30 min, when Isc and JHCO3 had stabilized, the CaSR agonist, R568 was added to the serosal or mucosal side of tissue, and changes in Isc and JHCO3 during the 15-30 min period ensuing after the addition of the agonist were determined.

Q: With `COc1cccc([C@@H](C)NCCCc2ccccc2Cl)c1.Cl` [R568, 2-Chloro-N-[(1R)-1-(3-methoxyphenyl)ethyl]-benzenepropanamine hydrochloride] as the molecule, how does the “effect on forskolin-induced HCO3^− secretion” value [1] read?
A: did not increase but rather decreased

Q: What about the “bumetanide-insensitive amiloride-inhibitable ENaC-mediated basal Isc” value (ENaC) of the same molecule?
A: inhibited

Q: What about the “R568 effects on Cl^−-, SCFA- and cAMP-dependent HCO3^− secretion” value [2] of the same molecule?
A: abolished

Q: And the “basal JHCO3 response” value ([3]; 10 μM, added to serosa)?
A: significantly stimulated

Q: And the “Isc in presence of R568” value ([3]; basal, absence 1.36±0.40, n=5, p>0.05)?
A: 1.48±0.44 μEq/hr/cm^2

Q: And the “effects of R568 compared with reduced Ca^2+o” value ([3]; under normal Ca^2+o condition)?
A: qualitatively similar, albeit with a slightly less pronounced effect
